The structures appear in SMILES notation.

The conditions of data set [1]: standard temperature and pressure (STP); cited from earlier work.
The test system of data set [2] is microbial growth. Briefly: Biological testing according to ASTM E2275. The data set is classed as cell-based. The note with it: 3-amino-4-octanol in solution at 6 total weight percent at higher. An excerpt: The solutions of Examples 1 and 3 and Comparative Examples A and B are subjected to biological testing according to ASTM E2275.

`CCCCC(O)C(N)CC` (centres unmarked) [3-amino-4-octanol]: the “solubility of 3-amino-4-octanol in water” value in data set [1] is recorded as “about 4.5 percent by weight”. The “resistance to microbial growth” value in data set [2] is reported as “enhanced resistant to microbial growth”.
